From US7955838B2, “Methods and device for adhesive control of internal cell organisation” (Institut Curie, priority 2003, dated 2011)

Test system: HeLa cells stably expressing centrin1-GFP
Assay: Nocodazole treatment of premitotic cells on [L] fibronectin micropatterns (centrosome separation, cell rounding, spindle orientation)
Format: cell-based, human
Settings: for Distribution of spindle orientations after nocodazole wash-out: after wash-out of 10^−7 M nocodazole, [L] patterns, versus non-treated cells
Experimental: HeLa, human epithelial cells, stably expressing centrin1-GFP (Piel et al. J. Cell Biol. 149, 317-329 (2000), were cultured in Dulbecco Modified Eagle Medium with 10% foetal calf serum, 1% penicillin and streptomycin, and 1% glutamine at 37° C. Cells were synchronised using a double thymidine block and then removed from their flask using […], 10 minutes at 37° C. After removing the […] by centrifugation, cells were resuspended in DMEM with 1% FCS and deposited on the printed coverslip at a density of 10^4 cells/cm^2. The inventors used an inverted Leica DMIRBE microscope with an heated and motorized stage combined with a home-made plastic cell chamber to hold the printed glass coverslip, which was covered by a porous membrane allowing CO2 buffering at pH-7.4. Metamorph software (Universal Imaging) was used for image acquisition. Numerous cell divisions were followed using a time-lapse phase contrast on a multi-fields acquisition at a frame rate of one picture every 3 minutes with a 10× magnitude objective. Centrosome movements were followed during mitosis with a 63× apochromat objective lens (Leica) using fluorescent Z acquisitions through a green filter and a phase contrast picture of the cell bottom every 5 minutes. A software has been developed. This software was able to automatically recognise a single fluorescent micropattern within a field and detect the presence of a single cell attached to it. Individual cell divisions were extracted from the 10× phase contrast time-lapse recordings and every picture automatically segmented using a wavelet decomposition and fitted with an ellipse (FIG. 1b). The moment of cell elongation in anaphase was precisely detected, as the shape factor, defined as the ellipse length ratio, suddenly dropped from more than 0.9 to less than 0.6 (FIG. 1c). The angle between the major axis of the ellipse, corresponding to spindle orientation, and the vertical reference of the pattern oriented as shown on FIG. 2 was then recorded. The position of the centre of the round mitotic cell with respect to the pattern was also automatically recorded 6 minutes before anaphase.[…]. The mechanisms by which the premitotic actin network is remodeled during mitotic cortical retraction and the correlative formation of actin-rich retraction fibers are not fully understood. In order to address whether spindle assembly had to take place during the remodelling of the actin network to be correctly oriented, centrosomes were prevented from separating during cell retraction on [L] patterns by treating premitotic cells with 10^-7 M nocodazole during one hour. […] After nocodazole washout, centrosomes separated and formed a bipolar spindle (FIG. 4C). […] RFs are good candidates for guiding spindle orientation as they are maintained despite nocodazole treatment.

[1] = 10^−7 M nocodazole during one hour, premitotic cells on [L] patterns

Structure (SMILES): COC(=O)Nc1nc2ccc(C(=O)c3cccs3)cc2[nH]1 [nocodazole]
- Effect on cell rounding [1]: did not block cell rounding
- Effect on mitosis / centrosome separation [1]: blocked cells in metaphase with unseparated centrosomes
- Distribution of spindle orientations after nocodazole wash-out: still preferentially orientated parallel to the hypotenuse of the triangle
- Distribution of spindle orientations after nocodazole wash-out (listed as NZ): spindles are still able to mainly orient in round cell bodies as in control cells
- Retracting fibers (RFs) under nocodazole treatment (nocodazole-treated mitotic cells on [L] patterns): maintained
